Patent publication US20100210567A1, “USE OF A TUFTSIN AS A THERAPEUTIC AGENT” (priority 2007, published 2010)
Residues, ends and D or L forms follow the SMILES beside them.

Tested on: drug-resistant Mycobacterium tuberculosis
Settings: peptide 10 micrograms per ml, seven days

## C[C@@H](O)[C@H](N)C(=O)N[C@@H](CCCCN)C(=O)N1CCC[C@H]1C(=O)N[C@@H](CCCNC(=N)N)C(=O)O [Tuftsin, Thr-Lys-Pro-Arg-OH] (H-TKPR-OH)
  % inhibition: 0.0%
